Data reported in patent US20050272649A1, “Conjoint administration of morphogens and ACE inhibitors in treatment of chronic renal failure” (priority 2002, published 2005).
Entries after “also recorded” stand apart in the source; their conditions may differ. Like-named read-outs stand apart in the source and are kept apart here.

How the values were obtained:
[1] = system: rat remnant kidney model (5/6 NPX); test: rat partial (5/6) nephrectomy chronic renal failure injury model; type: in vivo; details: enalapril 100 mg/L drinking water with or without OP-1; up to 26 weeks after nephrectomy
Excerpt: A rat partial (5/6) nephrectomy or rat remnant kidney model (RRKM) model was employed essentially as described (Vukicevic, et al. (1987) J. Bone Mineral Res. 2: 533, the entire content of which is incorporated herein by reference). Male Munich-Wistar rats (2-3 months old, weighing about 200-250 g) were subjected to renal mass ablation. Specifically, the right kidney is excised in conjunction with selective ligation of the left renal artery branches such that one third of the kidney remains perfused (5/6 NPX, see FIG. 12). Immediately following surgery, plasma creatinine and BUN levels rise dramatically due to the loss of renal mass and function. Over the next several weeks of this “acute” failure phase, plasma creatinine and BUN levels of surviving animals decline somewhat toward normal values but remain elevated. Renal function then appears to remain relatively constant or stable for a period of variable duration. After this point, the animals enter a period of chronic renal failure in which there is an essentially linear decline in renal function ending in death. For these reasons, animals are given 4 weeks of recovery prior to initiation of treatments.
Four weeks after nephrectomy, rats were divided into four treatment groups (see Table III), namely OP-1 (150 μg/kg body weight, 3×/week, by i.p. injection), Vehicle (20 mM arginine/150 mM NaCl, 0.1% Tween-80, pH 9.0, 1 ml/kg body weight, 3×/week, by i.p. injection), enalapril (100 mg/L in drinking water, 8-16 mg/kg body weight), and OP-1 with enalapril. For the first two groups (OP-1 and Vehicle), animals were sacrificed 14 weeks after nephrectomy. For the last two groups (enalapril, and OP-1 with enalapril), animals were sacrificed 26 weeks after nephrectomy. As surgical controls, rats were subjected to a “sham” operation in which the kidneys were decapsulated but no renal tissue was removed. Sham-treated animals were sacrificed 26 weeks after operation. None of the rats died in any group during this study. Systolic blood pressure, urine protein and/or glomerulosclerosis were monitored at intervals between 4 and 26 weeks post surgery.

[2] = system: streptozotocin diabetic Sprague-Dawley rats; type: in vivo; details: for GFR (ml/min/100 g bw): inulin clearance at 32 weeks; for mesangial matrix accumulation (in words): PAS / Trichrome histology at 32 weeks; for kidney weight / renal hypertrophy (in words): treatment weeks 16-32, versus vehicle-treated diabetic rats
Description: A long-term streptozotocin model of diabetic nephropathy was used to test and compare the therapeutic actions of BMP-7 with those of Enalapril. The study design was a treatment protocol beginning at 16 weeks when glomerular hypertrophy and proteinuria were established. The effects of therapy with BMP-7 (10, 30, or 100 μg/kg iv, biw) were compared to a maximal dose of Enalapril (20 mg/kg) and to a vehicle control. […] The GFR of 32 week diabetic Enalapril treated rats was 0.58±0.06 (not significant compared to vehicle treated and sham injected rats 0.55±0.02).
Animals: Female Sprague-Dawley rats 10 weeks of age weighing 190-220 g were used. Animals were allowed free access to standard rat chow and to tap water. Diabetes mellitus was induced by a single tail-vein injection of Streptozotocin (STZ 62 mg/kg of body weight, Sigma chemical company, St. Louis, Mo.) dissolved in normal saline at day 0. The diabetic state was confirmed 72 hours later by the determination of blood glucose concentration>300 mg/dl. From day 3, all the diabetic rats received daily subcutaneous injections of 1.0-7.0 u human recombinant long-acting insulin injection (Eli Lilly & Co., Indianapolis, Ind.) as required to maintain the blood glucose concentration between 300-500 mg/dl. Tail blood glucose levels were measured twice a week with an Accu—Chek™ Advantage meter (Roche Diagnostic Corporation, Indianapolis, Ind.). Body weights were taken once a week. Food and water intake were monitored daily.
Renal hypertrophy was well developed at 16 weeks prior to treatment with vehicle, BMP-7, or enalapril. […], animals were divided into 8 groups. Group 1 were 16 weeks of DM. Group 2 were 16 weeks normal controls. Group 3 DM animals were treated with tail-vein injection of vehicle twice a week for 16 weeks. Group 4, Group 5, and Group 6 were DM animals treated with tail-vein injections of BMP-7 100, 30, and 10 μg/kg body weight respectively twice a week for 16 weeks. Group 7 were treated with Enalapril 20 mg/kg through the drinking water for 16 weeks. […] Group 1 and Group 2 animals were sacrificed at 16 weeks. The others were sacrificed at 32 weeks. All treatments began at 16 weeks and continued through 32 weeks. Glomerular filtration rate (GFR), urine albumin excretion, kidney weight, glomerular area, mesangial matrix area, interstitial volume, monocyte and macrophage infiltration, thickness of glomerular basement membrane (GBM) and glomerulosclerosis were measured.
Renal Function: In all animals, glomerular filtration rate (GFR) was measured as the clearance of inulin. Rats were anesthetized with a Ketamine/Xylozine cocktail. A catheter was inserted into the femoral vein under a dissecting microscope for infusion. Another catheter was placed into the femoral artery for collecting blood samples. Urine was collected by bladder cannulation.
After the completion of surgery, a bolus of 2 ml/kg of 3% inulin (Cypros Pharmaceutical Corp, W. Carlsbad, Calif.) and 0.2% p-aminohippurate (PAH) in normal saline was infused as a priming load, followed by a sustaining infusion of the same solution at the rate of 8 ml/h·kg. Urine collection was initiated for three 20-minute collection periods after an hour of equilibration. An arterial blood sample was obtained during each clearance period. Plasma and urine were analyzed for inulin.
Urine volume was measured and urinary protein concentration was determined with a Bio-Rad protein assay.
Preparation of Kidneys: After the clearance studies, the rats were euthanized. Both kidneys were rapidly removed and placed in ice-cold phosphate buffered saline (PBS). Kidneys were weighed and then sliced on a cold glass plate. Two 2 mm coronal sections were immersed in Histochoice and in 10% buffered formalin. Kidney sections were embedded in paraffin and cut at 3 μm and stained with hematoxylin and eosin, Gomori's Trichrome and periodic acid Schiff (PAS).
Renal Morphology: The morphometric analysis was done in a blind manner. […]

[3] = system: unilateral ureteral ligation in Sprague-Dawley rats; details: cited from earlier work
[4] = Enalapril 20 mg/kg in drinking water (100 mg/l)
[5] = Enalapril 20 mg/kg in drinking water (100 mg/l), weeks 16-32
[6] = Enalapril 20 mg/kg in drinking water (100 mg/l), weeks 16-32, at 32 weeks
[7] = treatment weeks 16-32, listed as Enalapril

For `CCOC(=O)[C@H](CCc1ccccc1)N[C@@H](C)C(=O)N1CCC[C@H]1C(=O)O` [enalapril, N-(1-ethoxycarbonyl-3-phenylpropyl)-L-ananyl-L-proline, reference compound], the “proteinuria level (late-stage)” value [1] was 105 mg/day, the “renal BMP-7 expression (in situ hybridization)” value ([2]; 32 weeks) was “restored BMP-7 expression at high levels in the collecting duct; also recorded: restored BMP-7 expression in its normal pattern at high levels; also recorded: restored the normal distribution of BMP-7 expression” and the “renal Wnt4 expression (in situ hybridization)” value ([2]; 32 weeks) was “without affecting Wnt4 expression; also recorded: do not affect Wnt4 expression; also recorded: had no effect on Wnt4 expression”. For the same compound, the monocyte/macrophage tubulointerstitial infiltration ([2]; ED-1 positive cells, 32 weeks) was “decreased the tubulointerstitial infiltration”, the Cause-Mortality hypoglycemia [2, 4] was 1/10 and the Cause-Mortality ketoacidosis [2, 4] was 1/10. For the same compound, the Cause-Mortality unknown [2, 4] was 1/10, the “Body Weight (g) End” value [2, 5] was 294.9 ± 4.4 g and the “Body Weight (g) Weight Gain” value [2, 5] was 78.7 ± 5.9 g. The “Protein Ex (mg/day), urine protein excretion” value [2, 6] was 33.59 ± 7.58 mg/day, the “kidney weight” value [2, 6] was 1.09 ± 0.04 g and the “kidney weight” value ([2]; Enalapril 20 mg/kg in drinking water (100 mg/l), weeks 16-32, at 32 weeks, listed as E) was 1.09 ± 0.04 g. The Mortality ([2]; Enalapril 20 mg/kg in drinking water (100 mg/l), weeks 16-32, deaths/animals) was 3/10, the “GFR (ml/min/100 g bw)” value ([2]; Enalapril 20 mg/kg in drinking water (100 mg/l), weeks 16-32, listed as E) was 0.58 ± 0.06 ml/min/100 g bw and the “GFR (ml/min/100 g bw)” value ([2]; Enalapril 20 mg/kg in drinking water (100 mg/l), weeks 16-32, listed as Enalapril) was 0.58±0.06 ml/min/100 g bw. The “cortical interstitial area / volume” value ([2]; Enalapril 20 mg/kg, weeks 16-32, DM vehicle 13.1±0.7%) was 10.3±0.4%, the “mesangial matrix accumulation (in words)” value [2] was “more mesangial matrix accumulation” and the “mesangial matrix accumulation (in words)” value ([2]; listed as Enalapril) was “less effective than intermediate or high dose BMP-7 in eliminating accumulation of mesangial matrix”. The “glomerulosclerosis (in words)” value ([2]; treatment weeks 16-32) was “decreased glomerular sclerosis; also recorded: markedly reduced”, the “urine protein excretion / proteinuria / albuminuria (in words)” value ([2]; treatment weeks 16-32) was “reversed” and the “GFR (in words)” value ([2]; treatment weeks 16-32, versus vehicle-treated diabetic and normal rats) was “normal or greater; also recorded: restored GFR to normal or slightly above normal”. The “kidney weight / renal hypertrophy (in words)” value [2] was “partially reversed diabetic renal hypertrophy”, the “kidney weight / renal hypertrophy (in words)” value ([2]; listed as Enalapril) was “equal in partially reversing kidney hypertrophy; also recorded: equally effective” and the “glomerular area / glomerular hypertrophy (in words)” value [2, 7] was “significantly decreased; also recorded: equally effective”. The “glomerulosclerosis (in words)” value [2, 7] was “less effective in preventing glomerulosclerosis; also recorded: less so by Enalapril”, the “interstitial volume (in words)” value [2, 7] was “significantly decreased; also recorded: equally effective” and the “systolic blood pressure (tail artery cuff)” value [2, 7] was “controlled hypertension throughout the course of therapy; also recorded: reversed the hypertension of the diabetic rats; also recorded: normalized blood pressure during the entire 16 week course of therapy; also recorded: restored blood pressure to normal”. For the same compound, the tubular atrophy ([3]; UUO rats) was “an effect not shared with ACEI enalapril” and the “renal blood flow (RBF)” value ([3]; during UUO) was “also stimulated RBF”.
